{"source": "patent US20220380306A1", "about": "“ASTAXANTHIN ESTERS AND METHODS OF USE THEREOF” (CARDAX,INC., priority 2019, published 2022)", "key": {"[1]": {"experiment": "Hydrolysis of ADMG compared to ADSa in solution or under basic conditions (NaHCO3 / Na2CO3)", "format": "physicochemical", "details": "16 hours", "method": "The mixture was stirred at room temperature or 50° C. The reaction was monitored by HPLC and LCMS after 16 hours. […] “Byproduct” indicates a material that was formed other than the diester, monoester, or free astaxanthin."}, "[2]": {"experiment": "Hydrolysis of ADMG compared to ADSa under basic conditions with KOH", "format": "physicochemical", "details": "KOH 55.6 molar equivalents, room temperature", "method": "KOH was added at 55.6 molar equivalents as a solution in 81:9:10 methanol:dichloromethane:water at room temperature. The solution was analyzed using HPLC over various time points for starting diester (A), hydrolyzed monoester (B) and free astaxanthin (C). Byproduct indicates an impurity formed that is none of A, B, or C."}, "IL-1β": {"biological_target": "IL-1β (Homo sapiens, UniProt P01584)", "details": "cited from earlier work"}, "[3]": {"details": "20 mg/D rosuvastatin vs. placebo; patients who achieved a reduction in CRP<2.0; cited from earlier work"}, "[4]": {"details": "methotrexate 15-20 mg/week vs. placebo; cited from earlier work"}, "[5]": {"details": "subjects with a reduction of CRP<2.0 mg/L (regardless of dose)"}, "[6]": {"details": "methanol + saturated aq Na2CO3, rt"}, "[7]": {"details": "methanol + saturated aq NaHCO3, 50° C."}, "[8]": {"details": "methanol + saturated aq NaHCO3, rt"}}}
{"compound": "Astaxanthin Sarcosine Diester [ADSa, reference compound]", "values": [{"measurement": "A (starting diester)", "setting": "[1]; methanol, no base, rt", "value": 72, "unit": "% A"}, {"measurement": "Byproduct", "setting": "[1]; methanol, no base, rt", "value": 16, "unit": "% byproduct"}, {"measurement": "A (starting diester)", "setting": "[2]; time 0 hr", "value": 91.4, "unit": "%"}, {"measurement": "B (hydrolyzed monoester)", "setting": "[2]; time 0 hr", "value": 0.5, "unit": "%"}, {"measurement": "Byproduct", "setting": "[2]; time 0 hr", "value": 0, "unit": "%"}, {"measurement": "C (free astaxanthin)", "setting": "[2]; time 0 hr", "value": 0, "unit": "%"}, {"measurement": "A (starting diester)", "setting": "[2]; time 0.05 hr", "value": 24.0, "unit": "%"}, {"measurement": "B (hydrolyzed monoester)", "setting": "[2]; time 0.05 hr", "value": 46.8, "unit": "%"}, {"measurement": "Byproduct", "setting": "[2]; time 0.05 hr", "value": 1.3, "unit": "%"}, {"measurement": "C (free astaxanthin)", "setting": "[2]; time 0.05 hr", "value": 22.2, "unit": "%"}, {"measurement": "A (starting diester)", "setting": "[2]; time 0.62 hr", "value": 0, "unit": "%"}, {"measurement": "B (hydrolyzed monoester)", "setting": "[2]; time 0.62 hr", "value": 0.5, "unit": "%"}, {"measurement": "Byproduct", "setting": "[2]; time 0.62 hr", "value": 3.8, "unit": "%"}, {"measurement": "C (free astaxanthin)", "setting": "[2]; time 0.62 hr", "value": 90.8, "unit": "%"}]}
{"compound": "canakinumab: monoclonal antibody that targets IL-1β", "values": [{"measurement": "deaths from infection (mostly tuberculosis)", "setting": "IL-1β; active treatment groups vs. placebo", "value": "more deaths from infection"}, {"measurement": "CRP and IL-6 levels", "setting": "IL-1β; patients with active treatment", "value": "reduction"}, {"measurement": "lipids", "setting": "IL-1β; patients with active treatment", "value": "no change"}, {"measurement": "reduction in cardiovascular death and all-cause mortality", "setting": "IL-1β; [5]", "value": 31, "unit": "%"}, {"measurement": "reduction in the primary end point (composite of myocardial infarction, stroke, or cardiovascular death)", "setting": "IL-1β; [5]", "value": 25, "unit": "%"}]}
{"compound": "CC(C)c1nc(N(C)S(C)(=O)=O)nc(-c2ccc(F)cc2)c1/C=C/[C@@H](O)C[C@@H](O)CC(=O)O", "note": "[rosuvastatin]", "values": [{"measurement": "reduction in vascular events", "setting": "[3]", "value": 62, "unit": "%"}]}
{"compound": "CN(Cc1cnc2nc(N)nc(N)c2n1)c1ccc(C(=O)N[C@@H](CCC(=O)O)C(=O)O)cc1", "note": "[methotrexate]", "values": [{"measurement": "cardiovascular events compared to placebo", "setting": "[4]", "value": "did not result in fewer cardiovascular events"}, {"measurement": "levels of IL-1β, IL-6, or CRP", "setting": "[4]", "value": "did not reduce"}]}
{"compound": "CC1=C(/C=C/C(C)=C/C=C/C(C)=C/C=C/C=C(C)/C=C/C=C(C)/C=C/C2=C(C)C(=O)[C@@H](OC(=O)CN(C)C)CC2(C)C)C(C)(C)C[C@H](OC(=O)CN(C)C)C1=O", "note": "[ADMG, Astaxanthin Dimethyl Glycinate Diester]", "values": [{"measurement": "C (free astaxanthin)", "setting": "[1]; methanol + saturated aq Na2CO3, 50° C.", "value": 92, "unit": "% C"}, {"measurement": "B (hydrolyzed monoester)", "setting": "[1]; [6]", "value": 5, "unit": "% B"}, {"measurement": "C (free astaxanthin)", "setting": "[1]; [6]", "value": 90, "unit": "% C"}, {"measurement": "A (starting diester)", "setting": "[1]; [7]", "value": 33, "unit": "% A"}, {"measurement": "B (hydrolyzed monoester)", "setting": "[1]; [7]", "value": 50, "unit": "% B"}, {"measurement": "C (free astaxanthin)", "setting": "[1]; [7]", "value": 23, "unit": "% C"}, {"measurement": "A (starting diester)", "setting": "[1]; [8]", "value": 64, "unit": "% A"}, {"measurement": "B (hydrolyzed monoester)", "setting": "[1]; [8]", "value": 28, "unit": "% B"}, {"measurement": "C (free astaxanthin)", "setting": "[1]; [8]", "value": 2, "unit": "% C"}, {"measurement": "A (starting diester)", "setting": "[1]; methanol, no base, rt", "value": 75, "unit": "% A"}, {"measurement": "Byproduct", "setting": "[1]; methanol, no base, rt", "value": 21, "unit": "% byproduct"}, {"measurement": "A (starting diester)", "setting": "[2]; time 0 hr", "value": 93.7, "unit": "%"}, {"measurement": "B (hydrolyzed monoester)", "setting": "[2]; time 0 hr", "value": 0.1, "unit": "%"}, {"measurement": "Byproduct", "setting": "[2]; time 0 hr", "value": 0, "unit": "%"}, {"measurement": "C (free astaxanthin)", "setting": "[2]; time 0 hr", "value": 0, "unit": "%"}, {"measurement": "A (starting diester)", "setting": "[2]; time 0.07 hr", "value": 86.4, "unit": "%"}, {"measurement": "B (hydrolyzed monoester)", "setting": "[2]; time 0.07 hr", "value": 7.3, "unit": "%"}, {"measurement": "Byproduct", "setting": "[2]; time 0.07 hr", "value": 0, "unit": "%"}, {"measurement": "C (free astaxanthin)", "setting": "[2]; time 0.07 hr", "value": 0.1, "unit": "%"}, {"measurement": "A (starting diester)", "setting": "[2]; time 0.65 hr", "value": 36.1, "unit": "%"}, {"measurement": "B (hydrolyzed monoester)", "setting": "[2]; time 0.65 hr", "value": 44.9, "unit": "%"}, {"measurement": "Byproduct", "setting": "[2]; time 0.65 hr", "value": 0.1, "unit": "%"}, {"measurement": "C (free astaxanthin)", "setting": "[2]; time 0.65 hr", "value": 13.2, "unit": "%"}, {"measurement": "A (starting diester)", "setting": "[2]; time 1.23 hr", "value": 14.4, "unit": "%"}, {"measurement": "B (hydrolyzed monoester)", "setting": "[2]; time 1.23 hr", "value": 44.6, "unit": "%"}, {"measurement": "Byproduct", "setting": "[2]; time 1.23 hr", "value": 0.8, "unit": "%"}, {"measurement": "C (free astaxanthin)", "setting": "[2]; time 1.23 hr", "value": 34.6, "unit": "%"}, {"measurement": "A (starting diester)", "setting": "[2]; time 1.80 hr", "value": 5.5, "unit": "%"}, {"measurement": "B (hydrolyzed monoester)", "setting": "[2]; time 1.80 hr", "value": 34.2, "unit": "%"}, {"measurement": "Byproduct", "setting": "[2]; time 1.80 hr", "value": 1.4, "unit": "%"}, {"measurement": "C (free astaxanthin)", "setting": "[2]; time 1.80 hr", "value": 53.0, "unit": "%"}, {"measurement": "A (starting diester)", "setting": "[2]; time 2.38 hr", "value": 2.0, "unit": "%"}, {"measurement": "B (hydrolyzed monoester)", "setting": "[2]; time 2.38 hr", "value": 23.4, "unit": "%"}, {"measurement": "Byproduct", "setting": "[2]; time 2.38 hr", "value": 2.0, "unit": "%"}, {"measurement": "C (free astaxanthin)", "setting": "[2]; time 2.38 hr", "value": 66.6, "unit": "%"}, {"measurement": "A (starting diester)", "setting": "[2]; time 2.97 hr", "value": 0.7, "unit": "%"}, {"measurement": "B (hydrolyzed monoester)", "setting": "[2]; time 2.97 hr", "value": 14.9, "unit": "%"}, {"measurement": "Byproduct", "setting": "[2]; time 2.97 hr", "value": 2.7, "unit": "%"}, {"measurement": "C (free astaxanthin)", "setting": "[2]; time 2.97 hr", "value": 75.4, "unit": "%"}, {"measurement": "A (starting diester)", "setting": "[2]; time 3.55 hr", "value": 0.2, "unit": "%"}, {"measurement": "B (hydrolyzed monoester)", "setting": "[2]; time 3.55 hr", "value": 9.2, "unit": "%"}, {"measurement": "Byproduct", "setting": "[2]; time 3.55 hr", "value": 3.4, "unit": "%"}, {"measurement": "C (free astaxanthin)", "setting": "[2]; time 3.55 hr", "value": 80.7, "unit": "%"}]}
